Assay results reported in US12029744B2, “Bicyclic heteroaryl derivatives as ectonucleotide pyrophosphatase phosphodiesterase 1 inhibitors” (Riboscience LLC, priority 2019, dated 2024).

Biological target: T1, ENPP1 (Homo sapiens, UniProt P22413)
T1 sequence (P22413 1-925): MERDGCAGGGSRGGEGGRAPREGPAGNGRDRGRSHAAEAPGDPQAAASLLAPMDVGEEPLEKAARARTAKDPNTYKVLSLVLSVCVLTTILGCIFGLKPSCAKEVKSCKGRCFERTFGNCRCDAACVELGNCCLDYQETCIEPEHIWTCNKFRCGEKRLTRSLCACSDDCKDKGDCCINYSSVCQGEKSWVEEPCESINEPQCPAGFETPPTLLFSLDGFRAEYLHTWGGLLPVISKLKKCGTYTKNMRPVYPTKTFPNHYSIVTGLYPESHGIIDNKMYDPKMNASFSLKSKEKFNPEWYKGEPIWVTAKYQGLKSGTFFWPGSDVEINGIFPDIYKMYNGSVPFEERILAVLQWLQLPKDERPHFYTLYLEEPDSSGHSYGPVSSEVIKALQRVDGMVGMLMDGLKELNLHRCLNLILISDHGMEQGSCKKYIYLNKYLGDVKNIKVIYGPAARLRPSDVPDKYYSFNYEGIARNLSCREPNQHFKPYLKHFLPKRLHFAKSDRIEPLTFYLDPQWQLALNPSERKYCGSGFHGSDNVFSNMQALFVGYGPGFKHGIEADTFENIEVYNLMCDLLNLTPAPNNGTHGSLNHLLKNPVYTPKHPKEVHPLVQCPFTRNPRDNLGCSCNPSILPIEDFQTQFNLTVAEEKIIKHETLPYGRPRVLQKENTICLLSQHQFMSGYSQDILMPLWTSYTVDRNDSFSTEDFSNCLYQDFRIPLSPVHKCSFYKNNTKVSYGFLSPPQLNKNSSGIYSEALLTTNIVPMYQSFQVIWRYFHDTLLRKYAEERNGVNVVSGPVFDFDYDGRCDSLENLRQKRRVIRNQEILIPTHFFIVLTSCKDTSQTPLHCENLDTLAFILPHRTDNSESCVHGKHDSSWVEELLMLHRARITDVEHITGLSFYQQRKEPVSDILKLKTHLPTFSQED
Assay: Measurement of pNP-TMP hydrolysis by ENPP1 (enzyme activity assay, absorbance at 405 nm)
Assay type: biochemical
Settings: not given
Procedure: Measurement of pNP-TMP Hydrolysis by ENPP1
p-Nitrophenyl thymidine 5′-monophosphate (pNP-TMP) is a synthesized substrate for ENPP1. The ENPP1 enzyme activity assay with pNP-TMP substrate was conducted as follows:
Incubation of ENPP1 with compounds was set at 25° C. for 10 min. […] For each compound dilution, wells with assay buffer (50 mM Tris-HCl, pH8.8, 250 mM NaCl, 0.1 mg/ml BSA, 1% DMSO) only but no ENPP1 were included as controls for subtraction of test compound derived absorbance at 405 nm.
Absorbance at 405 nm was recorded immediately in kinetic mode by PerkinElmer 2300 Enspire multimode plate reader.
For each inhibitor, the specific ENPP1 activity was calculated using the following equation: ENPP1 activity (pmol/min/μg)=Adjusted Vmax (OD405 nm/min)×conversion factor (pmol/OD405 nm)/amount of enzyme (μg)
Adjusted Vmax=V0×(Km+(S))/(S).
V0=(OD405 nm with ENPP1−OD405 nm ENPP1 blank)/minutes. OD405 nm was plotted, with blank subtracted, against time (minutes), the initial linear rate is V0. […]
The slope is the conversion factor. The percent ENPP1 activity for each sample was calculated using the following equation: % enzyme activity=sample enzyme activity/MAX Activity×100%.
To determine the IC50 for each compound, compound concentration values and percent enzyme activity values were inserted into GraphPad Prism (GraphPad Prism version 7.0 for Windows, GraphPad Software, La Jolla California USA, www.graphpad.com), and Prism's Transform analysis was used to convert the x-axis values (compound concentration) to logarithms. A sigmoidal variable slope nonlinear regression analysis was performed using the following equation: Y=Bottom+(Top−Bottom)/(1+10^[…])).

| Ki [nM] | Structure (SMILES) |
| --- | --- |
| < 100 | NC(=O)c1ccc2c(ncn2Cc2ccc(P(=O)(O)O)cc2)n1 [Compound 138, 4-((5-carbamoylimidazo[4,5-b]pyridin-1-yl)methyl)phenylphosphonic acid] |

Same assay, conditions: substrate pNP-TMP 500 μM, KM 232 μM; Ki from IC50 by Cheng-Prusoff; read-out: Ki (pNP-TMP)

| Ki [nM] | Structure (SMILES) |
| --- | --- |
| < 100 | CCc1nc2c(O)nccc2n1Cc1ccc(B(O)O)cc1 [Compound 73, 4-((2-ethyl-4-hydroxyimidazo [4,5-c]pyridin-1-yl)methyl) phenylboronic acid] |
| < 1000 | CCc1nc2ccnc(O)c2n1Cc1ccc(B(O)O)cc1 [Compound 74, 4-((2-ethyl-4-hydroxyimidazo[4,5-c]pyridin-3-yl)methyl)phenylboronic acid] |
| < 100 | CC(C)c1nc2c(O)nccc2n1Cc1ccc(B(O)O)cc1 [Compound 75, 4-((4-hydroxy-2-isopropylimidazo[4,5-c]pyridin-1-yl)methyl) phenylboronic acid] |
| < 10 | Cc1cc2nc(C(N)=O)ccc2n1Cc1ccc(B(O)O)cc1 [Compound 77, 4-((5-carbamoyl-2-methylpyrrolo[3,2-b]pyridin-1-yl)methyl) phenylboronic acid] |
| < 100 | COc1cccc2c1nc(C)n2Cc1ccc(B(O)O)cc1 [Compound 95, 4-((4-methoxy-2-methyl-1,3-benzodiazol-1-yl)methyl) phenylboronic acid] |
| < 10 | NC(=O)c1nccc2c1ncn2Cc1ccc(B(O)O)cc1 [Compound 96, 4-((4-carbamoylimidazo[4,5-c]pyridin-1-yl)methyl)phenylboronic acid] |
| < 1000 | COc1nccc2c1cnn2Cc1ccc(B(O)O)cc1 [Compound 98, 4-((4-methoxypyrazolo [4,3-c]pyridin-1-yl)methyl) phenylboronic acid] |
| < 100 | NC(=O)c1ccc2c(ncn2Cc2ccc(B(O)O)cc2)c1N [Compound 105, 4-((4-amino-5-carbamoyl-1,3-benzodiazol-1-yl)methyl)phenylboronic acid] |
| < 10 | CCc1cc2c(O)nccc2n1Cc1ccc(B(O)O)cc1 [Compound 106, 4-((2-ethyl-4-hydroxypyrrolo[3,2-c]pyridin-1-yl)methyl)phenylboronic acid] |
| < 100 | CC(C)c1cc2c(O)nccc2n1Cc1ccc(B(O)O)cc1 [Compound 107, 4-((4-hydroxy-2-isopropylpyrrolo[3,2-c]pyridin-1-yl)methyl)phenylboronic acid] |
| < 10 | COc1ccc2c(ncn2Cc2ccc(B(O)O)cc2)n1 [Compound 125, 4-((5-methoxyimidazo[4,5-b]pyridin-1-yl)methyl)phenylboronic acid] |
| < 10 | OB(O)c1ccc(Cn2cnc3nc(O)ccc32)cc1 [Compound 127] |
| < 1000 | OB(O)c1ccc(Cn2cnc3c(C(F)F)cccc32)cc1 [Compound 130, 4-((4-(difluoromethyl)-1,3-benzodiazol-1-yl)methyl)phenylboronic acid] |
| < 100 | O=c1[nH]cnc2c1c(F)cn2Cc1ccc(P(=O)(O)O)cc1 [Compound 134, 4-((5-fluoro-4-oxo-3H-pyrrolo[2,3-d]pyrimidin-7-yl)methyl)phenylphosphonic acid] |
| < 100 | Cc1nc2cc(C(N)=O)ccc2n1Cc1ccc(P(=O)(O)O)cc1 [Compound 136, 4-((5-carbamoyl-2-methyl-1,3-benzodiazol-1-yl)methyl)phenylphosphonic acid] |
| < 1000 | NC(=O)c1ccc2c(ccn2Cc2ccc(P(=O)(O)O)cc2)c1 [Compound 142, 4-((5-carbamoylindol-1-yl)methyl)phenylphosphonic acid] |
| < 1000 | NC(=O)c1ccc2c(c1)c(Cl)cn2Cc1ccc(P(=O)(O)O)cc1 [Compound 143, 4-((5-carbamoyl-3-chloroindol-1-yl)methyl)phenylphosphonic acid] |
| < 10 | Cc1nc2nc(C(N)=O)ccc2n1Cc1ccc(B(O)O)cc1 [Compound 144, (4-((5-carbamoyl-2-methyl-1H-imidazo[4,5-b]pyridin-1-yl)methyl)phenyl)boronic acid] |
| < 10 | CC(C)c1nc2nc(C(N)=O)ccc2n1Cc1ccc(B(O)O)cc1 [Compound 146, 4-((5-carbamoyl-2-isopropylimidazo[4,5-b]pyridin-1-yl)methyl)phenylboronic acid] |
| < 100 | O=P(O)(O)c1ccc(Cn2cnc3nc(O)ccc32)cc1 [Compound 150, 4-((5-hydroxyimidazo[4,5-b]pyridin-1-yl)methyl)phenylphosphonic acid] |

Tested on: HGS tumor model
Assay: Anti-tumor activity in HGS tumor model
Assay type: in vivo
Settings: animals treated with 20/kg of compound, day 42 after inoculation (vehicle group 645)
From the text: […]

| Structure (SMILES) | tumor size [mm3] |
| --- | --- |
| C=CC(=O)N1CCN(CCCn2c(=O)c(-c3c(Cl)c(OC)cc(OC)c3Cl)cc3cnc(NC)nc32)CC1 [8-(3-(4-acryloylpiperazin-1-yl)propyl)-6-(2,6-dichloro-3,5-dimethoxyphenyl)-2-(methylamino)pyrido[2,3-d]pyrimidin-7(8H)-one] | 55 |
